Test results as given in patent publication US12378235B2, “HCK inhibitors for the treatment of fibrosis and cancer” (Icahn School of Medicine At Mount Sinai, priority 2019, dated 2025).
Values joined by “and” are separate entries in the source; they are usually repeats but may differ in a detail not shown here. Identical values can stand only once. Like-named read-outs stand apart in the source and are kept apart here.

Key:
HCK = target: T1, HCK (Homo sapiens, UniProt P08631); test: P32 radioactive kinase assay (Reaction Biology Corp), HCK activity inhibition; type: biochemical; details: for remaining activity at 1 µM: 1 μM compound, read-out: % Enzyme Activity (relative to DMSO controls) HCK (1 μM); for remaining activity at 50 µM: 50 μM compound, read-out: % Enzyme Activity (relative to DMSO controls) HCK (50 μM)
T1 construct: purchased Reaction Biology Corp
Description: HCK activity inhibition efficiency for the inhibitors. Inhibiting efficiency was performed in Reaction Biology with Corp P32 radioactive kinase assay, comparing the compounds of the invention with dasatinib for HCK, Bcr-Abl and other binding kinases identified in reference. Most of the HCK inhibitors of the invention tested have IC50 of HCK activity at about 50 uM concentrations.
HCK inhibiting efficiency was performed in Reaction Biology with Corp P32 radioactive kinase assay. Briefly, HCK kinase was delivered into the substrate solution and gently mixed, then compounds in DMSO were added into the kinase reaction mixture by Acoustic technology (Echo550; Nano liter range), and incubated for 20 minutes at room temperature. 33P-ATP was delivered into the reaction mixture to initiate the reaction. The kinase reaction was incubated for 2 hours at room temperature. Reactions were spotted onto P81 ion exchange paper, and detected kinase activity was measured by filter-binding method.

HK2 cells [1] = test: Anti-fibrosis effect: mRNA levels of fibrosis markers by RT-PCR in HK2 cells; type: cell-based; details: for mRNA levels of fibrosis markers: FIG. 3A and FIG. 3B
Description: Anti-fibrosis effect was investigated by fibrosis markers in mRNA level. […] The mRNA levels of Veminten, FN1 and A-Sma were not affected. HK2 cells were treated with HCK inhibitor Examples 4, 7, and 8 at 10 uM and 20 uM overnight and then stimulated with TGF-beta for 8 hours. mRNA-levels of profibrotic markers by RT-PCR (normalized to GAPDH) from mRNA isolated in the cells. Values are mean±SEM; *P=0.05, […], ***P<0.001 between means; one-way ANOVA with Bonferroni multiple comparison test (FIG. 2B). Finally, it was shown that Examples 7, 8, and 13 reduced the mRNA levels of fibrosis markers (FIG. 3A and FIG. 3B).

HK2 cells [2] = test: CellTiter 96 AQueous One Solution Cell Proliferation Assay (MTS) in HK2 cells; type: cell-based; details: Homo sapiens, HK-2, 24 hours treatment, MTS (FIG. 1), read-out: concentration that inhibits 50% of HK2 cell proliferation
Source text: HCK inhibitors reduce cell proliferation. Excessive HCK activation is associated with several types of leukemia and enhances cell proliferation and survival by physical association with oncogenic fusion proteins, and with functional interactions with receptor tyrosine kinases. Elevated HCK activity is also observed in many solid malignancies, including breast and colon cancer, and correlates with decreased patient survival rates. HCK enhances the secretion of growth factors and pro-inflammatory cytokines from myeloid cells and promotes macrophage polarization towards a wound healing and tumor-promoting alternatively activated phenotype. Inhibition of HCK activity, therefore, should inhibit cancerous cell's proliferation. Compounds of the invention were measured for inhibition of cell proliferation with CellTiter 96® AQueous One Solution Cell Proliferation Assay (MTS) from Promega in HK2 cells. The compounds of the invention were diluted to serial concentrations. HK2 cells were cultured in 10% FBS and 1% P/S. The cells were treated with the compounds of the invention for 24 hours and then 20 μl/well of CellTiter 96® AQueous One Solution Reagent was added. Values were normalized to the percentages relative to DMSO controls. Values shown are mean±SEM.

SMAD = SMAD binding activity in HK2 cells; type: cell-based
Source text: Inhibition of HCK affects SMAD binding activity. Transforming growth factor-β(TGF-β) is the primary factor that drives fibrosis in most, if not all, forms of chronic kidney disease (CKD). TGF-β1 can induce renal fibrosis via activation of both canonical (Smad-based) and non-canonical (non-Smad-based) signalling pathways, which result in activation of myofibroblasts, excessive production of extracellular matrix (ECM) and inhibition of ECM degradation. The role of Smad proteins in the regulation of fibrosis is complex, with competing profibrotic and antifibrotic actions (including in the regulation of mesenchymal transitioning), and with complex interplay between TGF-β/Smads and other signalling pathways.

LDH cytotoxicity assay = type: cell-based; details: different dosages, up to very high dose of 50 uM
Description: LDH cytotoxicity assay for HCK inhibitors cytotoxicity. Toxicity refers to how poisonous or harmful a substance can be. In the context of pharmacology, drug toxicity occurs when a person has accumulated too much of a drug in his bloodstream, leading to adverse effects on the body. Drug toxicity may occur when the dose given is too high or the liver or kidneys are unable to remove the drug from the bloodstream, allowing it to accumulate in the body. Drug toxicity was measured with LDH cytotoxicity assay with different dosages of compounds of the invention.

[3] = second of two replicate columns
[4] = HK2 cells treated with 5, 10, 20 uM (FIG. 2A)

T1 sequence (P08631 whole entry): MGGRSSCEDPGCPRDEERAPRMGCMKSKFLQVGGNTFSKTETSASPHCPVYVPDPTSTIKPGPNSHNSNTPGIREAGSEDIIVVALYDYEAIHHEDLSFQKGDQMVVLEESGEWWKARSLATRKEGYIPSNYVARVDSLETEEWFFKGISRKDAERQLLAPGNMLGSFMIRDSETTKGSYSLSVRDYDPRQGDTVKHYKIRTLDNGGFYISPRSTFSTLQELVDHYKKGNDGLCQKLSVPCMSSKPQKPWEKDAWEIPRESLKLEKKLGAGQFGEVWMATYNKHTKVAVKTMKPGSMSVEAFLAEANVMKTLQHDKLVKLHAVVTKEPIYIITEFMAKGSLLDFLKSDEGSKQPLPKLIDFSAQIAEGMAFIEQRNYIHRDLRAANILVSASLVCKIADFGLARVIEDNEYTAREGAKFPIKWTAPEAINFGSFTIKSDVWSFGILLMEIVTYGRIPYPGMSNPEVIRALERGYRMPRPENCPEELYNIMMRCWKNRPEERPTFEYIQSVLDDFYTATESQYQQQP

remaining activity at 1 µM (HCK; first of two replicate columns) [%] | remaining activity at 1 µM (HCK; [3]) [%] | remaining activity at 50 µM (HCK; first of two replicate columns) [%] | remaining activity at 50 µM (HCK; [3]) [%] | IC50 (HCK) | Structure (SMILES) | mRNA levels of Veminten, FN1 and A-Sma (HK2 cells [1]; [4]) | mRNA levels of fibrosis markers collagen1, Snail, Mmp2 and Slug(Snail2) (HK2 cells [1]; [4]) | IC50 (HK2 cells [2]) [µM] | mRNA levels of fibrosis markers (HK2 cells [1]) | SMAD activity in HK2 cells (SMAD) | cytotoxicity (LDH assay) (LDH cytotoxicity assay)
107 | 95 | 106 | 113 |  | O=C(Nc1ncc(C(=O)O)s1)c1cc(-c2ccccc2)on1 [Example 18] |  |  |  |  |  | 
109 | 113 | 68.4 | 65.5 | < 50 µM | CCOC(=O)c1cnc(NC(C#N)c2cc(-c3ccccc3)on2)s1 (centres unmarked) [Example 13] |  |  | 10 | reduced |  | 
97.5 | 94 | 89.8 | 85 |  | CCOC(=O)c1cnc(NC(=O)c2cc(OC)c(OC)c(OC)c2)s1 [Example 16] |  |  |  |  |  | 
114 | 116 | 112 | 117 |  | CCOC(=O)c1cnc(NC(=O)c2cc(-c3ccccc3)on2)s1 [Example 17] |  |  |  |  |  | 
96.2 | 100 | 76.9 | 77.7 |  | O=C(Nc1ncc(C(=O)O)s1)c1cc(Cl)cc(Cl)c1 [Example 21] |  |  |  |  |  | 
86.6 | 83.4 | 6.63 | 5.97 | < 50 µM | CCOC(=O)c1cnc(NC(=O)C2=Cc3cc(Cl)cc(Cl)c3OC2c2ccccc2)s1 (centres unmarked) [Example 15] |  |  | 0.5 |  | reduce SMAD activity | 
99.2 | 100 | 94.1 | 90.7 |  | COc1cc(C(=O)Nc2ncc(C(=O)O)s2)cc(OC)c1OC [Example 19] |  |  |  |  |  | 
102 | 110 | 101 | 97.8 |  | CCOC(=O)c1cnc(NC(=O)c2cc(Cl)cc(Cl)c2)s1 [Example 20] |  |  |  |  |  | 
112 | 118 | 93.6 | 94.2 |  | CCOC(=O)c1cnc(NC(=O)/C=C/c2ccccc2)s1 [Example 14] |  |  |  |  |  | 

Second part, the compound before the results:

Structure (SMILES) | remaining activity at 1 µM (HCK; first of two replicate columns) [%] | remaining activity at 1 µM (HCK; [3]) [%] | remaining activity at 50 µM (HCK; first of two replicate columns) [%] | remaining activity at 50 µM (HCK; [3]) [%] | IC50 (HCK) | mRNA levels of Veminten, FN1 and A-Sma (HK2 cells [1]; [4]) | mRNA levels of fibrosis markers collagen1, Snail, Mmp2 and Slug(Snail2) (HK2 cells [1]; [4]) | IC50 (HK2 cells [2]) [µM] | mRNA levels of fibrosis markers (HK2 cells [1]) | SMAD activity in HK2 cells (SMAD) | cytotoxicity (LDH assay) (LDH cytotoxicity assay)
COc1cc(-c2nnc3n2N=C(c2ccc(Br)cc2)CS3)cc(OC)c1OC [Example 4] |  |  |  |  | < 50 µM and 30 µM | not affected | affected |  |  |  | 
CCOC(=O)c1cnc(NC(C#N)C2=Cc3cc(Cl)cc(Cl)c3OC2c2ccccc2)s1 (centres unmarked) [Example 12] | 108 | 113 | 75.9 | 79.5 | < 50 µM |  |  | 10 |  | reduce SMAD activity | some cytotoxicity at very high dose of 50 uM
CCOC(=O)c1cnc(NC(=O)c2cc3cc(Cl)ccc3oc2=O)s1 [Example 7] | 104 | 114 | 42.8 | 45 | < 50 µM |  |  | 10 | reduced |  | 
CCOC(=O)c1cnc(NC(=O)c2cc3cc(Cl)ccc3[nH]c2=O)s1 [Example 8] | 108 | 116 | 41.2 | 43.9 | < 50 µM |  |  | 0.5 | reduced | reduce SMAD activity | 
CCOC(=O)c1cnc(NC(=O)c2ccc(B3OC(C)(C)C(C)(C)O3)cc2)s1 [Example 9] | 110 | 115 | 95 | 86.3 |  |  |  |  |  |  | 
CCOC(=O)c1cnc(NC(C#N)c2ccc(B(O)O)cc2)s1 (centres unmarked) [Example 11] | 93.5 | 103 | 74.5 | 68.5 |  |  |  |  |  |  | 
CCOC(=O)c1cnc(NC(C#N)c2ccc(B3OC(C)(C)C(C)(C)O3)cc2)s1 (centres unmarked) [Example 10] | 104 | 99.4 | 89.1 | 96.5 |  |  |  |  |  |  | 
